# pIC50: −log10 of the molar value.
# Biological target: T1, human recombinant Dipeptidyl peptidase IV enzyme (DPP-IV) (Homo sapiens, UniProt P27487)
# T1 construct: purchased R&D Systems Inc. of Minneapolis, Minn
# Assay: in-vitro DPP-IV assay (cleavage of AMC from Gly-Pro-AMC)
# Assay type: biochemical
# Details: at 300 nM; printed in the IC50 (nM) column; read-out: DPP-IV inhibition using human recombinant DPP-IV enzyme, percent inhibition
# Experimental: DPP-IV activity was determined by the cleavage rate of 7-amino-4-methyl coumarin (AMC) from the synthetic substrate Glycyl-Prolyl-AMC. In brief, the assay was conducted by adding 10 ng of human recombinant Dipeptidyl peptidase IV enzyme (DPP-IV, available commercially from R&D Systems Inc. of Minneapolis, Minn.) in 50 μl of the assay buffer (25 mM Tris, pH 7.4, 140 mM NaCl, 10 mM KCl, 1% BSA) to 96 well black flat bottom microtiter plates. The reaction was initiated by adding 50 μl of 100 μM substrate Gly-Pro-AMC. The incubation was carried out in the kinetic mode at 30° C. for 30 minutes. Fluorescence was measured using Fluorostar with an excitation filter of 380 nm and emission filter of 460 nm. Test compounds and solvent controls were added as 1 μl additions. A standard curve of free amino methyl coumarin (AMC) was generated using 0-100 μM AMC in the assay buffer. The curve generated, which was linear was used for the interpolation of catalytic activity.
# Test compounds dissolved in DMSO at 5-6 concentrations were tested in duplicate along with the solvent control and blank samples. Percent inhibition was calculated at each concentration with respect to the solvent control sample (no test compound added). […]
# T1 sequence (P27487 whole entry): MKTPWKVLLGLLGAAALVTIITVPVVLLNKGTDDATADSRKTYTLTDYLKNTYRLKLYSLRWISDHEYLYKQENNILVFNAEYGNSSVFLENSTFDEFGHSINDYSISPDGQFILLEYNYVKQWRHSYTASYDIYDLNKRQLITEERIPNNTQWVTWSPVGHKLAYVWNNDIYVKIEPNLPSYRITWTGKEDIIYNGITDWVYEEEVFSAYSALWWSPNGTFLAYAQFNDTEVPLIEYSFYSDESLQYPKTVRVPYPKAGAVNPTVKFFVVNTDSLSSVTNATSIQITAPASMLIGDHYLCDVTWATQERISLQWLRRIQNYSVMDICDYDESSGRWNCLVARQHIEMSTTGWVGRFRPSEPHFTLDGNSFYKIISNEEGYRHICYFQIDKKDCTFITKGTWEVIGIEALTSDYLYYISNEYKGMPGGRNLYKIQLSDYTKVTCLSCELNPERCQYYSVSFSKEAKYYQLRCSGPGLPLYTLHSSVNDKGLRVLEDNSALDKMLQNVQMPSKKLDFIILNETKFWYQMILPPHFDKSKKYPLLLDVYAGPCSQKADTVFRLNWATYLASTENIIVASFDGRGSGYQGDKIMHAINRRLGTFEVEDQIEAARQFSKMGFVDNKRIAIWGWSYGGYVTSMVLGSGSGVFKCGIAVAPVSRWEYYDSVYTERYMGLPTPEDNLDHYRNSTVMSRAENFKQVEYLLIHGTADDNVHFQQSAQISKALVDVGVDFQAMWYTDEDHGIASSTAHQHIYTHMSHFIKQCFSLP
row,inhibition at 0.3 µM [%],SMILES
1,2,"N#C[C@@H]1CCCN1C(=O)CNC1CCC(C(=O)Nc2cc(F)c(F)cc2F)C1 (mixture of isomers) [Example 74, 1-((1SR,3RS)-3-{2-[(2S)-2-Cyanopyrrolidine-1-yl]-2-oxoethylamino}cyclopentyl-carboxamido)-2,4,5-trifluorobenzene]"
2,0,"O=C(CN[C@H]1CCC(Cn2cncn2)C1)N1CC[C@H](F)C1 (stereo in doubt) [Example-55, 1-[(3S)-3-Fluoropyrrolidin-1-yl]-2-[(1S,3S)-3-(1H-1,2,4-Triazol-1-ylmethyl)cyclo-pentylamino]-1-ethanone]"

# Same assay, conditions: human recombinant DPP-IV, Gly-Pro-AMC substrate, 30° C., 30 minutes; read-out: DPP-IV inhibition using human recombinant DPP-IV enzyme, IC50
row,SMILES,pIC50
1,"N#C[C@@H]1CCCN1C(=O)CNC1CCC(C(=O)NOCc2ccccc2)C1 (mixture of isomers) [Example-12, N1-Benzyloxy-(1SR,3RS)-3-{2-[(2S)-2-cyanopyrrolidin-1-yl]-2-oxoethylamino}-cyclopentane-1-carboxamide]",6.84
2,"N#Cc1cccn1CC1CCC(NCC(=O)N2C[C@@H](F)C[C@H]2C#N)C1 (mixture of isomers) [Example-27, (2S,4S)-1-{2-[(3SR,1RS)-3-(2-Cyano-1H-pyrrol-1-ylmethyl)cyclopentylamino)-acetyl}-4-fluoropyrrolidine-2-carbonitrile]",8.46
3,"CCCCc1nc(Cl)c(CO)n1CC1CCC(NCC(=O)N2CCC[C@H]2C#N)C1 (mixture of isomers) [Example-31, (2S)-1-{2-[(3SR,1RS)-3-(2-Butyl-4-chloro-5-hydroxymethyl-1H-1-imidazolylmethyl)-cyclopentylamino]acetyl}pyrrolidine-2-carbonitrile]",7.99
4,"N#C[C@@H]1C[C@H](F)CN1C(=O)CNC1CCC(Cn2cncn2)C1 (mixture of isomers) [Example-41, (2S,4S)-1-{2-[(3SR,1RS)-3-(1H-1,2,4-Triazol-1-ylmethyl)cyclopentylamino]acetyl}-4-fluoropyrrolidine-2-carbonitrile]",8.35
5,"N#C[C@@H]1CCCN1C(=O)CNC1CCC(C(=O)NC23CC4CC(CC(C4)C2)C3)C1 (mixture of isomers) [Example 72, 1-((1SR,3RS)-3-{2-[(2S)-2-Cyanopyrrolidin-1-yl]-2-oxoethylamino}cyclopentyl-carboxamido)adamantine]",6.68
6,"N#C[C@@H]1CCCN1C(=O)CNC1CCC(C(=O)Nc2cc(F)ccc2F)C1 (mixture of isomers) [Example 73, 1-((1SR,3RS)-3-{2-[(2S)-2-Cyanopyrrolidin-1-yl)-2-oxoethylamino}cyclopentyl-carboxamido)-2,5-difluorobenzene]",7.31
7,"N#C[C@@H]1CCCN1C(=O)CNC1CCC(C(=O)Nc2ccccc2-c2ccccc2)C1 (mixture of isomers) [Example 75, 1-((1SR,3RS)-3-{2-[(2S)-2-Cyanopyrrolidin-1-yl)-2-oxoethylamino}cyclopentyl-carboxamido)-2-phenylbenzene]",6.60
8,"N#C[C@@H]1CCCN1C(=O)CNC1CCC(CN2CCN(Cc3ccccc3)CC2)C1 (mixture of isomers) [Example-22, (2S)-1-{2-1[(3SR,1RS)-3-(4-Benzylpiperazinomethyl)cyclopentylamino]acetyl}-pyrrolidin-2-carbonitrile]",7.60
9,"N#C[C@@H]1CCCN1C(=O)CN[C@@H]1CC[C@H](CNC(=O)Nc2ccccc2)C1 [Example-13, N1-Phenyl-N3-((1S,3R)-3-{2-[(2S)-2-cyanopyrrolidin-1-yl]-2-oxoethylamino}-cyclopentylmethyl)urea]",7.50
10,"N#C[C@@H]1CCCN1C(=O)CN[C@@H]1CC[C@H](CNC(=O)Nc2ccc(F)cc2F)C1 [Example-14, N1-(2,4-Difluorophenyl)-N3-((1S,3R)-3-{2-[(2S)-2-cyanopyrrolidin-1-yl]-2-oxoethyl-amino}cyclopentylmethyl)urea]",7.58
11,"N#C[C@@H]1C[C@H](F)CN1C(=O)CN[C@@H]1CC[C@H](Cc2ccccc2)C1 [Example-15, (2S,4S)-1-{2-[(1R,3R)-3-Benzylcyclopentylamino]acetyl}-4-fluoropyrrolidin-2-yl cyanide]",8.22
12,COc1ccccc1C[C@H]1CC[C@@H](NCC(=O)N2C[C@@H](F)C[C@H]2C#N)C1 [Example-16],7.75

# Next, values leading:
row,pIC50,SMILES
1,6.54,"N#CC1CCC(NCC(=O)N2CCC[C@H]2C#N)C1 (mixture of isomers) [Example 2, (2S)-1-{2-[(3SR,1RS)-3-Cyanocyclopentylamino]acetyl}-2-pyrrolidinecarbonitrile]"
2,6.79,"N#C[C@@H]1CCCN1C(=O)CNC1CCC(C(N)=O)C1 (mixture of isomers) [Example-1, (1SR,3RS)-3-{2-[(2S)-2-Cyanopyrrolidin-1-yl]-2-oxoethylamino}cyclopentane-1-carboxamide]"
3,7.57,"N#CCC1CCC(NCC(=O)N2CCC[C@H]2C#N)C1 (mixture of isomers) [Example-3, (2S)-1-{2-[(3SR,1RS)-3-Cyanomethylcyclopentylamino]acetyl}-2-pyrrolidine carbonitrile]"
4,7.19,"N#C[C@@H]1CCCN1C(=O)CNC1CCC(CN2CCC[C@H]2C(N)=O)C1 (mixture of isomers) [Example-10, (2S)-1-((1SR,3RS)-3-{2-[(2S)-2-Cyanopyrrolidin-1-yl]-2-oxoethylamino}cyclopentyl-methyl)pyrrolidine-2-carboxamide]"
5,6.91,"CN1CCN(CC2CCC(NCC(=O)N3CCC[C@H]3C#N)C2)CC1 (mixture of isomers) [Example-20, (2S)-1-{2-[(3SR,1RS)-3-(4-Methylpiperazinomethyl)cyclopentylamino]acetyl}-pyrrolidine-2-carbonitrile]"
6,7.48,"N#CC1CCN(C[C@H]2CC[C@@H](NCC(=O)N3CCC[C@H]3C#N)C2)CC1 (mixture of isomers) [Example-21, (2S)-1-{2-[(3SR,1RS)-3-(4-Cyanopiperidinylmethyl)cyclopentylamino]acetyl}-pyrrolidine-2-carbonitrile]"
7,8.46,"CCCCc1nc(Cl)c(C#N)n1CC1CCC(NCC(=O)N2CCC[C@H]2C#N)C1 (mixture of isomers) [Example-32, 2-n-Butyl-4-chloro-1-((1SR,3RS)-3-{2-[(2S)-2-cyanopyrrolidin-1-yl]-2-oxoethyl-amino}cyclopentylmethyl)-1H-5-imidazolecarbonitrile]"
8,8.30,"N#Cc1ncn(CC2CCC(NCC(=O)N3CCC[C@H]3C#N)C2)c1C#N (mixture of isomers) [Example-33, 1-((1SR,3RS)-3-{2-[(2S)-2-Cyanopyrrolidin-1-yl]-2-oxoethylamino}cyclopentyl-methyl)-1H-4,5-imidazoledicarbonitrile]"
9,8.22,"N#C[C@@H]1CCCN1C(=O)CNC1CCC(Cn2cncn2)C1 (mixture of isomers) [Example-36, (2S)-1-{2-[(3SR,1RS)-3-(1H-1,2,4-Triazol-1-ylmethyl)cyclopentylamino]acetyl}-pyrrolidine-2-carbonitrile]"
10,6.99,N#C[C@@H]1CCCN1C(=O)CNC1CCC(C(=O)N2CCC[C@H]2C#N)C1 (mixture of isomers) [Example-11]
11,6.54,N#C[C@@H]1CCCN1C(=O)CNC1CCC(CN2CCSC2)C1 (mixture of isomers) [Example-17]
12,8.16,"N#C[C@@H]1CCCN1C(=O)CNC1CCC(Cn2cnc([N+](=O)[O-])c2)C1 (mixture of isomers) [Example-30, (2S)-1-{2-[(3SR,1RS)-3-(1H-4-Nitro-1-imidazolylmethyl)cyclopentylamino]acetyl}-pyrrolidine-2-carbonitrile]"
13,7.65,"N#CC[C@H]1CC[C@@H](NCC(=O)N2CCC[C@H]2C#N)C1 [Example-4, (2S)-1-{2-[(3S,1R)-3-Cyanomethylcyclopentylamino]acetyl}-2-pyrrolidinecarbo-nitrile]"
14,7.66,"N#CC[C@@H]1CC[C@H](NCC(=O)N2CCC[C@H]2C#N)C1 [Example-6, (2S)-1-{2-[(3R,1S)-3-Cyanomethylcyclopentylamino]acetyl}-2-pyrrolidinecarbo nitrile]"
15,8.37,"N#CC[C@H]1CC[C@@H](NCC(=O)N2C[C@@H](F)C[C@H]2C#N)C1 [Example-7, (2S,4S)-1-{2-[(3S,1R)-3-Cyanomethylcyclopentylamino]acetyl}-4-fluoro-2-pyrrol-idinecarbonitrile]"
16,8.36,"N#CC[C@@H]1CC[C@H](NCC(=O)N2C[C@@H](F)C[C@H]2C#N)C1 [Example-8, (2S,4S)-1-{2-1[(3R,1S)-3-Cyanomethylcyclopentylamino]acetyl}-4-fluoro-2-pyrro-idinecarbonitrile]"
17,8.41,"N#CCC[C@H]1CC[C@@H](NCC(=O)N2C[C@@H](F)C[C@H]2C#N)C1 [Example-9, 3-((1R,3R)-3-{2-[(2S,4S)-2-Cyano-4-fluoropyrrolidin-1-yl]-2-oxoethylamino}-cyclopentyl)propanenitrile]"
18,7.53,"N#C[C@@H]1CCCN1C(=O)CN[C@@H]1CC[C@H](CN2CCCS2(=O)=O)C1 [Example-18, (2S)-1-{2-[(3S,1R)-3-(1,1-Dioxo-2-isothiazolidinylmethyl)cyclopentylamino]acetyl}-pyrrolidine-2-carbonitrile]"
19,7.70,"N#C[C@@H]1CCCN1C(=O)CN[C@@H]1CC[C@H](CN2CCOCC2)C1 [Example-19, (2S)-1-{2-[(3S,1R)-3-Morpholinomethylcyclopentylamino]acetyl}pyrrolidine-2-carbonitrile]"

# Source: patent US7524844B2, “Dipeptidyl peptidase IV inhibitors, process for their preparation and compositions containing them” (Glenmark Pharmaceuticals S.A., priority 2004, dated 2009)
